# Patent US20240139221A1, “TREATMENT OF HPV-INDUCED NEOPLASIA” (priority 2022, published 2024)
# How the values were obtained:
# [1] = Bulk stability (accelerated stability, one week; HPLC and XRPD)
# Method: Bulk stability: Accelerated stability experiments were conducted at 25° C./92% RH and 40° C./75% RH in an open container, 60° C. in a tight container for one week.
# Samples were characterized by XRPD and HPLC and inspected for color change.
# Accelerated stability experiments were conducted at 25° C./92% RH in an open container, at 40° C./75% RH in an open container, and at 60° C. in a tight container for one week.
# [2] = Approximate solubility in solvents at 25° C. and 50° C., visual observation; format: physicochemical
# Method: The maximum volume of each solvent added was 1 mL. Approximate solubility was determined by visual observation.
# Maximum volume of each solvent added was 1 mL. Approximate solubility was determined by visual observation.
# [3] = Hygroscopicity by DVS at 25° C.; format: physicochemical; conditions: DVS 25° C.; for D. (%) Cycle 1: Desorption cycle 1; for D. (%) Cycle 2: Desorption cycle 2; for S. (%) Cycle 1: Sorption cycle 1; for S. (%) Cycle 2: Sorption cycle 2
# Method: Hygroscopicity was investigated by DVS at 25° C., using the following method: […]
# [4] = Tablet stability study (purity by HPLC); format: physicochemical
# Method: Tablets were prepared using the excipients and excipient ratios shown in the first column of the following tables. The tablets were then stored under the conditions indicated and periodically sampled and tested for purity by HPLC.
# [5] = Solubility in buffers, water and simulated vaginal fluid at 37° C.; conditions: for pH of solution at 2 hrs: 37° C.; for solubility at 0.5 h / solubility at 2 h: 37 °C, thermodynamic from solid
# Method: About 4 mg of Compound I Pattern 1 was added into 2 mL of buffer solution.
# (§1) Solubility was tested in five media, pH 3.0 citrate buffer, pH 4.5 acetate buffer, pH 6.8 phosphate buffer, water, simulated vaginal fluid (pH 4.2) at 37° C. for 0.5 h and 2 h.
# The salt amount used is equivalent to 10 mg anhydrous free base. […] The obtained clear solutions were analyzed by pH meter for pH, and solubility was determined by observation.
# as §1
# [6] = 25° C., 92% RH, open container, one week
# [7] = 40° C., 75% RH, open container, one week
# [8] = 60° C., tight container, one week
# [9] = excipients Carbomer (49%) + Hydrated Dextrose (49%)
# [10] = excipients Carbomer (49%) + Mannitol (49%)
# [11] = excipients PC (49%) + Anhydrous Lactose (49%)
# [12] = excipients PC (49%) + MCC (49%)
# [13] = acetate buffer, pH 4.5, aqueous buffer
# [14] = citrate buffer, pH 3, aqueous buffer
# [15] = phosphate buffer, pH 6.8, aqueous buffer
# [16] = simulated vaginal fluid, pH 4.2, fassgf or other biorelevant
smiles,measurement,setting,value
"CCOC(=O)[C@H](C)NP(=O)(COCCn1cnc2c(OC)nc(N)nc21)OCc1ccccc1 (stereo partly drawn) [Compound I, ethyl(((2-(2-amino-6-methoxy-9H-purin-9-yl)ethoxy)methyl)(benzyloxy)-phosphoryl)-L-alaninate]",XRPD after storage,"[1]; 25° C., 84% RH, open container, 2 days",No change
same,HPLC (purity) after storage,[1]; [6],98.5%
same,XRPD after storage,[1]; [6],No change
same,HPLC (purity) after storage,[1]; [7],95.2%
same,XRPD after storage,[1]; [7],No change
same,HPLC (purity) after storage,[1]; [8],98.5%
same,XRPD after storage,[1]; [8],No change
same,"HPLC (purity), Initial","[1]; initial, before storage",98.7%
same,Solubility (mg/mL) 25° C.,[2]; Acetone,>100 mg/mL
same,Solubility (mg/mL) 50° C.,[2]; Acetone,>500 mg/mL
same,Solubility (mg/mL) 25° C.,[2]; Acetonitrile,>100 mg/mL
same,Solubility (mg/mL) 50° C.,[2]; Acetonitrile,>500 mg/mL
same,Solubility (mg/mL) 25° C.,[2]; Dichloromethane,>100 mg/mL
same,Solubility (mg/mL) 50° C.,[2]; Dichloromethane,>500 mg/mL
same,Solubility (mg/mL) 25° C.,[2]; Ethanol,>100 mg/mL
same,Solubility (mg/mL) 50° C.,[2]; Ethanol,>500 mg/mL
same,Solubility (mg/mL) 25° C.,[2]; Ethyl acetate (EA),>100 mg/mL
same,Solubility (mg/mL) 50° C.,[2]; Ethyl acetate (EA),>500 mg/mL
same,Solubility (mg/mL) 25° C.,[2]; Heptanes,<2 mg/mL
same,Solubility (mg/mL) 50° C.,[2]; Heptanes,<10 mg/mL
same,Solubility (mg/mL) 25° C.,[2]; Isopropanol (IPA),>100 mg/mL
same,Solubility (mg/mL) 50° C.,[2]; Isopropanol (IPA),>500 mg/mL
same,Solubility (mg/mL) 25° C.,[2]; Isopropyl acetate,>100 mg/mL
same,Solubility (mg/mL) 50° C.,[2]; Isopropyl acetate,>500 mg/mL
same,Solubility (mg/mL) 25° C.,[2]; Methanol,>100 mg/mL
same,Solubility (mg/mL) 50° C.,[2]; Methanol,>500 mg/mL
same,Solubility (mg/mL) 25° C.,[2]; Methyl ethyl ketone,>100 mg/mL
same,Solubility (mg/mL) 50° C.,[2]; Methyl ethyl ketone,>500 mg/mL
same,Solubility (mg/mL) 25° C.,[2]; Methyl t-butyl ether (MTBE),<2 mg/mL
same,Solubility (mg/mL) 50° C.,[2]; Methyl t-butyl ether (MTBE),<10 mg/mL
same,Solubility (mg/mL) 25° C.,[2]; Tetrahydrofuran,>100 mg/mL
same,Solubility (mg/mL) 50° C.,[2]; Tetrahydrofuran,167 to 250 mg/mL
same,Solubility (mg/mL) 25° C.,[2]; Water,20 to 25 mg/mL
same,Solubility (mg/mL) 50° C.,[2]; Water,25 to 27 mg/mL
same,D. (%) Cycle 1,[3]; 0% RH,0.00%
same,D. (%) Cycle 1,[3]; 10% RH,0.11%
same,D. (%) Cycle 1,[3]; 20% RH,0.23%
same,D. (%) Cycle 1,[3]; 30% RH,0.47%
same,D. (%) Cycle 1,[3]; 40% RH,0.60%
same,D. (%) Cycle 2,[3]; 0% RH,0.19%
same,D. (%) Cycle 2,[3]; 10% RH,0.37%
same,D. (%) Cycle 2,[3]; 20% RH,0.57%
same,D. (%) Cycle 2,[3]; 30% RH,0.83%
same,D. (%) Cycle 2,[3]; 40% RH,1.09%
same,D. (%) Cycle 2,[3]; 50% RH,1.48%
same,D. (%) Cycle 2,[3]; 60% RH,1.96%
same,D. (%) Cycle 2,[3]; 70% RH,2.78%
same,D. (%) Cycle 2,[3]; 80% RH,4.33%
same,D. (%) Cycle 2,[3]; 90% RH,9.10%
same,D. (%) Cycle 2,[3]; 95% RH,14.32%
same,S. (%) Cycle 1,[3]; 0% RH,0.00%
same,S. (%) Cycle 1,[3]; 10% RH,0.08%
same,S. (%) Cycle 1,[3]; 20% RH,0.17%
same,S. (%) Cycle 1,[3]; 30% RH,0.28%
same,S. (%) Cycle 1,[3]; 40% RH,0.41%
same,S. (%) Cycle 1,[3]; 50% RH,0.61%
same,S. (%) Cycle 1,[3]; 60% RH,0.85%
same,S. (%) Cycle 1,[3]; 70% RH,1.14%
same,S. (%) Cycle 1,[3]; 80% RH,1.64%
same,S. (%) Cycle 1,[3]; 90% RH,4.27%
same,S. (%) Cycle 1,[3]; 95% RH,14.32%
same,S. (%) Cycle 2,[3]; 0% RH,0.19%
same,S. (%) Cycle 2,[3]; 10% RH,0.22%
same,S. (%) Cycle 2,[3]; 20% RH,0.30%
same,S. (%) Cycle 2,[3]; 30% RH,0.44%
same,S. (%) Cycle 2,[3]; 40% RH,0.62%
same,"purity by HPLC, 0 months",[4]; [9],99.52
same,"purity by HPLC, 1 month 25 C./60% RH",[4]; [9],82.44
same,"purity by HPLC, 1 month 40 C./75% RH",[4]; [9],0.17
same,"purity by HPLC, 0 months",[4]; [10],98.87
same,"purity by HPLC, 1 month 25 C./60% RH",[4]; [10],91.54
same,"purity by HPLC, 1 month 40 C./75% RH",[4]; [10],6.75
same,"purity by HPLC, 0 months",[4]; [11],99.40
same,"purity by HPLC, 1 month 25 C./60% RH",[4]; [11],95.98
same,"purity by HPLC, 1 month 40 C./75% RH",[4]; [11],41.3
same,"purity by HPLC, 0 months",[4]; [12],98.64
same,"purity by HPLC, 1 month 25 C./60% RH",[4]; [12],97.16
same,"purity by HPLC, 1 month 40 C./75% RH",[4]; [12],46.11
same,pH of solution at 2 hrs,[5]; Simulated vaginal fluid (pH adjusted with 0.2N NaOH),(5.53)
same,pH of solution at 2 hrs,[5]; Water,(7.55)
same,solubility at 0.5 h,[5]; [13],> 2 mg/mL
same,solubility at 2 h,[5]; [13],> 2 mg/mL
same,solubility at 0.5 h,[5]; [14],> 2 mg/mL
same,solubility at 2 h,[5]; [14],> 2 mg/mL
same,pH of solution at 2 hrs,[5]; pH 3.0 100 mM citrate buffer,(2.98)
same,pH of solution at 2 hrs,[5]; pH 4.5 50 mM acetate buffer,(4.50)
same,pH of solution at 2 hrs,[5]; pH 6.8 50 mM phosphate buffer,(6.81)
same,solubility at 0.5 h,[5]; [15],> 2 mg/mL
same,solubility at 2 h,[5]; [15],> 2 mg/mL
same,solubility at 0.5 h,[5]; [16],> 2 mg/mL
same,solubility at 2 h,[5]; [16],> 2 mg/mL
same,solubility at 0.5 h,[5]; water,> 2 mg/mL
same,solubility at 2 h,[5]; water,> 2 mg/mL
